Test results as given in the supplement of paper PMC11208160.

experiment: recombinant UMI read abundance after kanamycin selection (control-corrected) (log10(CPM+1)); higher = more efficient recombination; extreme values may be limits of the assay; sequences stand for … in AGTGCAGAGAAAATCGGCCAGTTTTCTCTGCCTGCAGTCCGCATGCCGTGGGACCCCTTGGGTTCTAACCTGTTGCCTAGATTTATGCAGCGGACTGCCTTTCTCCCAAAGTGATAAACCGG…AGGTTGGTTTCACT; site = the 11-nt donor
Method in brief: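 Pooled Escherichia coli screen of donor and donor-binding-loop pairs for the IS621 bridge recombinase. Each pair sits with a 12-nt UMI on a plasmid carrying a promoterless kanamycin gene. The library was co-electroporated with a target plasmid encoding a fixed target and T7-inducible recombinase, then plated with IPTG (0.07 mM) plus kanamycin, or unselected, each in two replicates. Recombinant UMIs were PCR-amplified across the donor–target junction and sequenced. Counts became CPM, averaged over replicates, scaled by control-derived factors and reported as log10(CPM+1).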
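Further: IS621 bridge recombinase in Escherichia coli cells against a fixed T5 target plasmid.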

Point of comparison: “TCCACCGCATGGACCGGTTTTCCCGGTAATCCGTATTTGCG (site TCCACCACTCG)”, “recombinant UMI read abundance (log10)” value 0.00973. Against it:
- TCCAATTCATGGACCGGTTTTCCCGGTAATCCGTATTTGCA (site TCCAATTCTTG) — within 0.2 log units, 0
- TCCAATTCATGGACCGGTTTTCCCGGTAATCCGTATTTGCG (site TCCAATTCTAG) — within 0.2 log units, 0
- TCCAATTCATGGACCGGTTTTCCCGGTAATCCGTATTTGCG (site TCCAATTCTCG) — within 0.2 log units, 0
- TCCAATTCATGGACCGGTTTTCCCGGTAATCCGTATTTGCG (site TCCAATTCTGG) — within 0.2 log units, 0
- TCCAATTCATGGACCGGTTTTCCCGGTAATCCGTATTTGCG (site TCCAATTCTTG) — within 0.2 log units, 0
- TCCACCACATGGACCGGTTTTCCCGGTAATCCGTATTTGCG (site TCCACCACTCG) — within 0.2 log units, 0.0102
- TCCACCACATGGACCGGTTTTCCCGGTAATCCGTATTTGCG (site TCCACCCCTCG) — within 0.2 log units, 0.0154
- TCCACCACATGGACCGGTTTTCCCGGTAATCCGTATTTGCG (site TCCACCGCTCG) — within 0.2 log units, 0
- TCCACCACATGGACCGGTTTTCCCGGTAATCCGTATTTGCG (site TCCACCTCTCG) — within 0.2 log units, 0.00608
- TCCACCGCATGGACCGGTTTTCCCGGTAATCCGTATTTGCG (site ACCACCGCTCG) — within 0.2 log units, 0.0347
- TCCACCGCATGGACCGGTTTTCCCGGTAATCCGTATTTGCG (site CCCACCGCTCG) — within 0.2 log units, 0.0205
- TCCACCGCATGGACCGGTTTTCCCGGTAATCCGTATTTGCG (site GCCACCGCTCG) — within 0.2 log units, 0.0147
- TCCACCGCATGGACCGGTTTTCCCGGTAATCCGTATTTGCG (site TACACCGCTCG) — within 0.2 log units, 0.0145
- TCCACCGCATGGACCGGTTTTCCCGGTAATCCGTATTTGCG (site TCAACCGCTCG) — within 0.2 log units, 0.00833
- TCCACCGCATGGACCGGTTTTCCCGGTAATCCGTATTTGCG (site TCCAACGCTCG) — within 0.2 log units, 0
- TCCACCGCATGGACCGGTTTTCCCGGTAATCCGTATTTGCG (site TCCACAGCTCG) — within 0.2 log units, 0.00578
- TCCACCGCATGGACCGGTTTTCCCGGTAATCCGTATTTGCG (site TCCACCCCTCG) — within 0.2 log units, 0.0195
- TCCACCGCATGGACCGGTTTTCCCGGTAATCCGTATTTGCG (site TCCACCGCTAG) — within 0.2 log units, 0.00776
- TCCACCGCATGGACCGGTTTTCCCGGTAATCCGTATTTGCG (site TCCACCGCTCA) — within 0.2 log units, 0.0193
- TCCACCGCATGGACCGGTTTTCCCGGTAATCCGTATTTGCG (site TCCACCGCTCC) — within 0.2 log units, 0.0232
- TCCACCGCATGGACCGGTTTTCCCGGTAATCCGTATTTGCG (site TCCACCGCTCG) — within 0.2 log units, 0.0267
- TCCACCGCATGGACCGGTTTTCCCGGTAATCCGTATTTGCG (site TCCACCGCTCT) — within 0.2 log units, 0.0151
- TCCACCGCATGGACCGGTTTTCCCGGTAATCCGTATTTGCG (site TCCACCGCTGG) — within 0.2 log units, 0
- TCCACCGCATGGACCGGTTTTCCCGGTAATCCGTATTTGCG (site TCCACCGCTTG) — within 0.2 log units, 0
- TCCACCGCATGGACCGGTTTTCCCGGTAATCCGTATTTGCG (site TCCACCTCTCG) — within 0.2 log units, 0.00739
- TCCACCGCATGGACCGGTTTTCCCGGTAATCCGTATTTGCG (site TCCACGGCTCG) — within 0.2 log units, 0
- TCCACCGCATGGACCGGTTTTCCCGGTAATCCGTATTTGCG (site TCCACTGCTCG) — within 0.2 log units, 0.0248
- TCCACCGCATGGACCGGTTTTCCCGGTAATCCGTATTTGCG (site TCCAGCGCTCG) — within 0.2 log units, 0.0215
- TCCACCGCATGGACCGGTTTTCCCGGTAATCCGTATTTGCG (site TCCATCGCTCG) — within 0.2 log units, 0.0351
- TCCACCGCATGGACCGGTTTTCCCGGTAATCCGTATTTGCG (site TCCCCCGCTCG) — within 0.2 log units, 0.1
- TCCACCGCATGGACCGGTTTTCCCGGTAATCCGTATTTGCG (site TCCGCCGCTCG) — within 0.2 log units, 0.0234
- TCCACCGCATGGACCGGTTTTCCCGGTAATCCGTATTTGCG (site TCCTCCGCTCG) — within 0.2 log units, 0.0203
- TCCACCGCATGGACCGGTTTTCCCGGTAATCCGTATTTGCG (site TCGACCGCTCG) — within 0.2 log units, 0.023
- TCCACCGCATGGACCGGTTTTCCCGGTAATCCGTATTTGCG (site TCTACCGCTCG) — within 0.2 log units, 0.0356
- TCCACCGCATGGACCGGTTTTCCCGGTAATCCGTATTTGCG (site TGCACCGCTCG) — within 0.2 log units, 0.0462
- TCCACCGCATGGACCGGTTTTCCCGGTAATCCGTATTTGCG (site TTCACCGCTCG) — within 0.2 log units, 0.00717
- TCCACCTCATGGACCGGTTTTCCCGGTAATCCGTATTTGCG (site TCCACCACTCG) — within 0.2 log units, 0.00715
- TCCACCTCATGGACCGGTTTTCCCGGTAATCCGTATTTGCG (site TCCACCCCTCG) — within 0.2 log units, 0.0186
- TCCACCTCATGGACCGGTTTTCCCGGTAATCCGTATTTGCG (site TCCACCGCTCG) — within 0.2 log units, 0.0129
- TCCACCTCATGGACCGGTTTTCCCGGTAATCCGTATTTGCG (site TCCACCTCTCG) — within 0.2 log units, 0.0255
- TCCACGCCATGGACCGGTTTTCCCGGTAATCCGTATTTGTA (site ACCACGCCTTA) — within 0.2 log units, 0.0141
- TCCACGCCATGGACCGGTTTTCCCGGTAATCCGTATTTGTA (site CCCACGCCTTA) — within 0.2 log units, 0.038
- TCCACGCCATGGACCGGTTTTCCCGGTAATCCGTATTTGTA (site GCCACGCCTTA) — within 0.2 log units, 0.00791
- TCCACGCCATGGACCGGTTTTCCCGGTAATCCGTATTTGTA (site TCCACGCCTTA) — within 0.2 log units, 0.0284
- TCCACGGCATGGACCGGTTTTCCCGGTAATCCGTATTTGCG (site TCCACAGCTCG) — within 0.2 log units, 0.0432
- TCCACGGCATGGACCGGTTTTCCCGGTAATCCGTATTTGCG (site TCCACCGCTCG) — within 0.2 log units, 0.023
- TCCACGGCATGGACCGGTTTTCCCGGTAATCCGTATTTGCG (site TCCACGGCTCG) — within 0.2 log units, 0.0249
- TCCACGGCATGGACCGGTTTTCCCGGTAATCCGTATTTGCG (site TCCACTGCTCG) — within 0.2 log units, 0
- TCCACTTCATGGACCGGTTTTCCCGGTAATCCGTATTTGCC (site TCCAATTCTGG) — within 0.2 log units, 0
- TCCACTTCATGGACCGGTTTTCCCGGTAATCCGTATTTGCC (site TCCACTTCTGG) — within 0.2 log units, 0
- TCCACTTCATGGACCGGTTTTCCCGGTAATCCGTATTTGCC (site TCCAGTTCTGG) — within 0.2 log units, 0
- TCCACTTCATGGACCGGTTTTCCCGGTAATCCGTATTTGCC (site TCCATTTCTGG) — within 0.2 log units, 0
- TCCAGATCATGGACCGGTTTTCCCGGTAATCCGTATTTGGG (site TCCAGATCTCC) — within 0.2 log units, 0
- TCCAGTGCATGGACCGGTTTTCCCGGTAATCCGTATTTGCT (site TCCAGTGCTAG) — within 0.2 log units, 0
- TCCATTCCATGGACCGGTTTTCCCGGTAATCCGTATTTGGA (site TCCATTCCTTC) — within 0.2 log units, 0.0134
- TCCCAAACATGGACCGGTTTTCCCGGTAATCCGTATTTGCT (site TCCCAAACTAG) — within 0.2 log units, 0.0138
- TCCCACCCATGGACCGGTTTTCCCGGTAATCCGTATTTGAT (site TCCCACCCTAT) — within 0.2 log units, 0.0298
- TCCCGCCCATGGACCGGTTTTCCCGGTAATCCGTATTTGCT (site TCCCGCCCTAG) — within 0.2 log units, 0.00858
- TCCCTTCCATGGACCGGTTTTCCCGGTAATCCGTATTTGCG (site TCCCTTCCTCG) — within 0.2 log units, 0
- TCCGCTGCATGGACCGGTTTTCCCGGTAATCCGTATTTGAA (site TCCGCTGCTTT) — within 0.2 log units, 0
- TCCGGTGCATGGACCGGTTTTCCCGGTAATCCGTATTTGCC (site TCCGGTGCTGG) — within 0.2 log units, 0
- TCCTACCCATGGACCGGTTTTCCCGGTAATCCGTATTTGGT (site TCCTACCCTAC) — within 0.2 log units, 0.00951
- TCCTAGCCATGGACCGGTTTTCCCGGTAATCCGTATTTGTA (site TCCTAGCCTTA) — within 0.2 log units, 0.0223
- TCCTATTCATGGACCGGTTTTCCCGGTAATCCGTATTTGCC (site TCCAATTCTGG) — within 0.2 log units, 0
- TCCTATTCATGGACCGGTTTTCCCGGTAATCCGTATTTGCC (site TCCCATTCTGG) — within 0.2 log units, 0
- TCCTATTCATGGACCGGTTTTCCCGGTAATCCGTATTTGCC (site TCCGATTCTGG) — within 0.2 log units, 0
- TCCTATTCATGGACCGGTTTTCCCGGTAATCCGTATTTGCC (site TCCTATTCTGG) — within 0.2 log units, 0
- TCCTCCCCATGGACCGGTTTTCCCGGTAATCCGTATTTGCG (site TCCTCCCCTCG) — within 0.2 log units, 0.00424
- TCCTCCGCATGGACCGGTTTTCCCGGTAATCCGTATTTGCG (site TCCACCGCTCG) — within 0.2 log units, 0.00517
- TCCTCCGCATGGACCGGTTTTCCCGGTAATCCGTATTTGCG (site TCCCCCGCTCG) — within 0.2 log units, 0.0138
- TCCTCCGCATGGACCGGTTTTCCCGGTAATCCGTATTTGCG (site TCCGCCGCTCG) — within 0.2 log units, 0
- TCCTCCGCATGGACCGGTTTTCCCGGTAATCCGTATTTGCG (site TCCTCCGCTCG) — within 0.2 log units, 0.0201
- TCCTCCTCATGGACCGGTTTTCCCGGTAATCCGTATTTGCC (site TCCTCCTCTGG) — within 0.2 log units, 0
- TCCTTGACATGGACCGGTTTTCCCGGTAATCCGTATTTGCT (site TACTTGACTAG) — higher, 0.397
